Assay results as given in US20230352136A1, “SYSTEMS AND METHODS TO EVALUATE DRUG-INDUCED GASTROINTESTINAL DYSRHYTHMIA” (The Chinese University of Hong Kong, priority 2022, published 2023).

Key:
[1] = tested on: duodenum pacemaker potentials; experiment: MEA recording of pacemaker potentials (slow waves), isolated duodenum; format: cell-based, Suncus murinus; conditions: for amplitude of slow waves: duodenum
Experimental: (§1) Pacemaker potentials were recorded extracellularly on a 60-channel MEA system using full-thickness GI segments isolated from Suncus murinus. Basic slow-wave parameters, including frequency, amplitude, slope, period, and power partitions, were derived. Signal regularity was also evaluated using detrended fluctuation analysis and sample entropy analysis.
(§2) Electrical recordings were taken after the animals were euthanised by carbon dioxide asphyxiation. […] The mesentery was removed, and the lumen contents were flushed with Krebs' medium. Segments (−1 cm) of duodenum, ileum, and colon were then isolated, but the stomach was kept intact. All tissue segments and the entire stomach were incubated in Krebs' medium containing nifedipine (1 μM; Sigma Aldrich, St Louis, MO, USA) for 15 min to inhibit smooth muscle activity. Pacemaker potentials were recorded using an MEA platform (MEA1060 1200×; Multichannel Systems, Reutlingen, Germany) as previously described. Briefly, tissues were placed onto the electrode field of an MEA chip (60-channel, 8×8 configuration, 3D-tip-shaped electrodes with a height of […] and an inter-electrode distance of 200 μm; Ayanda Biosystems SA, Lausanne, Switzerland). Intestinal segments were aligned horizontally to the recording electrode field, while the stomach was oriented with the antrum facing the recording electrode field. The chamber temperature was maintained at 37° C. and the sampling frequency was 1 kHz. […] All data were recorded and saved using MC_Rack (v 4.6.2, Multichannel Systems).
(§3) Data analysis included basic slow-wave feature extraction using a custom automated program. […] The time point of drug administration was automatically identified based on the signal disturbance. The period of signal disturbance (20 s before and 40 s after the peak of the disturbance) was excluded from the analysis. Data were filtered using a passband between 0.1 Hz and 1 Hz and a stopband between 0.01 Hz and 2 Hz. The basic slow-wave features extracted were similar to those extracted in the inventors' previous studies. However, instead of using several templates and scripts written in Microsoft Excel and Spike 2, a one-step automatic and blinded MATLAB programme was used for data analysis. There were four major changes to the data analysis process as compared to the inventors' previous studies. First, auto-identification of the drug disturbance time point was used, rather than manual identification. Second, standardised signal filters were built in MATLAB to match the entire data analysis pipeline. […] Frequency partitioning was performed by segmenting the power spectrum of 0-50 cpm into the following four segments: brady-rhythm (within the range 2-[DF−1] cpm), normal-rhythm ([DF±1] cpm), tachy-rhythm (within the range [DF+1]-40 cpm), and out-of-range frequencies (<2 cpm and >40 cpm). Third, waveforms were identified using the MATLAB ‘findpeaks’ function, with a minimum peak height of […] at baseline and […] after drug treatment, with a step time of 5.4 s for the intestine and 12 s for the stomach. The average peak-to-peak amplitude, slope, and period were derived for all detected waveforms. Fourth, propagation velocity was derived using phase-difference measurements, based on the auto-select seed electrode with the highest percentage of normal rhythms.
(§4) Dominant activation pattern identification included a phase-based analysis performed as previously described (Liu et al., 2021). Briefly, high-frequency spikes with amplitudes greater than […] were masked. Continuous frequencies were identified using continuous wavelet transformation, and the transformed data were used to plot spectrograms. […] High quality data were subjected to Hilbert transformation to identify the phase and frequency of the signals. Individual activation times were clustered using k-means clustering every 20 s and major activation patterns were grouped using a structural similarity index.

[2] = tested on: colon pacemaker potentials; experiment: MEA recording of pacemaker potentials (slow waves), isolated colon; format: cell-based, Suncus murinus; conditions: colonic tissues
Experimental: as §1, §2, §3, §4

[3] = duodenal tissues, 0.1-100 μM, p>0.05, n=5-9

Cl.NCCc1ccc(O)c(O)c1 [dopamine, 3-Hydroxytyramine hydrochloride]
waveform period ([1]; duodenal tissues, 100 nM, baseline 2.52±0.21, p<0.05, n=7): 3.27 ± 0.47 s
DFA fluctuation function (smaller scale 3-25) ([1]; duodenal tissues, 100 nM, baseline 2.65±0.08, p<0.01, n=6): 2.51±0.05
percentage of tachy-rhythms ([1]; duodenal tissues, 100 nM, baseline 12.5±5.7, p<0.05, n=7): 2.1±0.7%
percentage of dominant baseline activation patterns, second pattern ([1]; duodenal tissues, 100 nM, baseline 23.3±5.7, p<0.05, n=7): 8.4±11.2%
average frequency (AF) ([1]; duodenal tissues, 100 nM, baseline 24.1±2.0, p<0.05, n=7): 20.9±0.7 cpm
dominant frequency (DF) of slow waves ([1]; duodenal tissues, 100 nM, baseline 27.1±2.2, p<0.05, n=7): 24.9±1.2 cpm
percentage of dominant baseline activation patterns, first pattern ([1]; duodenal tissues, 100 nM, baseline 32.3±11.8, p<0.01, n=7): 11.1±13.0%
percentage of brady-rhythms ([1]; duodenal tissues, 100 nM, baseline 35.7±10.3, p<0.0001, n=7): 87.2±7.7%
percentage of normal rhythms ([1]; duodenal tissues, 100 nM, baseline 46.1±11.2, p<0.001, n=7): 4.8±4.6%
slope of waveforms ([1]; duodenal tissues, 100 nM, baseline 321.7±95.5, p<0.01, n=7): 166.9±57.7 μV s^−1
DFA fluctuation function (larger scale 26-46) ([1]; duodenal tissues, 100 nM, baseline […], p<0.01, n=6): 1.98±0.11
DFA fluctuation function (larger scale 26-46) ([1]; duodenal tissues, 1 μM, baseline 1.74±0.32, p<0.05, n=7): 1.63±0.38
number of groups of activation patterns ([1]; duodenal tissues, 1 μM, baseline 6.2±1.0, p<0.05, n=6): 6.8±1.0
percentage of brady-rhythms ([1]; duodenal tissues, 1 μM, baseline 25.8±12.3, p<0.05, n=6): 53.7±26.6%
percentage of dominant baseline activation patterns, first pattern ([1]; duodenal tissues, 1 μM, baseline 33.7±13.1, p<0.05, n=6): 12.8±9.4%
representative spectrogram, effect on DF ([1]; duodenal tissues, 10 μM): slightly shifted towards a lower frequency
wave fronts counted in representative spatio-temporal map (1 min) ([1]; duodenal tissues, 10 μM, 30 before treatment): 27
average SampEn (smaller scale 1-5) ([1]; duodenal tissues, 10 μM, baseline 0.58±0.05, p<0.05, n=7): 0.60±0.04
number of groups of activation patterns ([1]; duodenal tissues, 10 μM, baseline 5.9±0.7, p<0.05, n=9): 6.4±0.5
percentage of dominant patterns (based on post-treatment data, FIG. 3E), second pattern ([1]; duodenal tissues, 10 μM, baseline 10.2±9.1, p<0.05, n=5): 18.5±2.3%
percentage of normal rhythms ([1]; duodenal tissues, 10 μM, baseline 52.4±14.7, p<0.05, n=9): 7.8±6.4%
slope of waveforms ([1]; duodenal tissues, 10 μM, baseline 202.4±50.6, p<0.05, n=9): 153.9±47.7 μV s^−1
DFA fluctuation function (larger scale 26-46) ([1]; duodenal tissues, 100 μM, baseline 1.46±0.29, p<0.05, n=9): 1.36±0.31
waveform period ([1]; duodenal tissues, 100 μM, baseline 2.44±0.72, p<0.05, n=5): 3.26 ± 1.29 s
percentage of dominant baseline activation patterns, third pattern ([1]; duodenal tissues, 100 μM, baseline 15.2±2.1, p<0.05, n=4): 5.9±3.6%
percentage of dominant patterns (based on post-treatment data, FIG. 3E), third pattern ([1]; duodenal tissues, 100 μM, baseline 20.3±10.8, p<0.05, n=4): 7.5±5.8%
average frequency (AF) ([1]; duodenal tissues, 100 μM, baseline 25.1±3.7, p<0.05, n=5): 22.2±5.4 cpm
dominant frequency (DF) of slow waves ([1]; duodenal tissues, 100 μM, baseline 28.6±4.1, p<0.05, n=5): 26.3±5.2 cpm
percentage of dominant baseline activation patterns, first pattern ([1]; duodenal tissues, 100 μM, baseline 29.3±5.5, p<0.01, n=4): 7.0±7.0%
percentage of brady-rhythms ([1]; duodenal tissues, 100 μM, baseline 43.3±11.6, p<0.05, n=5): 68.6±29.0%
slope of waveforms ([1]; duodenal tissues, 100 μM, baseline 322.2±108.6, p<0.01, n=5): 182.5±61.7 μV s^−1
percentage of dominant baseline activation patterns, second pattern ([1]; duodenal tissues, 100 μM, baseline […], p<0.05, n=4): 7.4±4.1%
dominant power (DP), change vs baseline [1, 3]: No significant differences
propagation velocities, effect [1, 3]: did not affect
average SampEn (larger scale 6-50), effect ([1]; duodenal tissues, 0.1-100 μM, p>0.05, n=6-9): did not change
DFA fluctuation function (smaller scale 3-25) ([1]; duodenal tissues, 100 M, baseline 2.26±0.16, p<0.05, n=9): 2.18±0.16
percentage of tachy-rhythms ([1]; duodenal tissues, 100 M, baseline 11.0±5.2, p<0.05, n=5): 5.4±4.9%
amplitude of slow waves ([1]; 100 nM, baseline 193.0±54.9, p<0.01, n=7): 114.1±37.7 μV
amplitude of slow waves ([1]; 10 μM, baseline 117.6±24.2, p<0.05, n=9): 97.4±13.7 μV
amplitude of slow waves ([1]; 100 μM, baseline 199.3±60.5, p<0.01, n=5): 121.1±27.3 μV
average SampEn (larger scale 6-50) ([2]; 100 nM, baseline 0.33±0.06, p<0.01, n=6): 0.28±0.07
average SampEn (smaller scale 1-5) ([2]; 100 nM, baseline 0.59±0.03, p<0.01, n=6): 0.62±0.03
DFA fluctuation function (larger scale 26-46) ([2]; 100 nM, baseline 1.80±0.09, p<0.001, n=6): 1.58±0.11
DFA fluctuation function (smaller scale 3-25) ([2]; 100 nM, baseline 2.37±0.07, p<0.01, n=6): 2.26±0.06
average frequency (AF) ([2]; 100 nM, baseline 23.9±2.4, p<0.05, n=7): 23.3±1.6 cpm
DFA fluctuation function (smaller scale 3-25) ([2]; 1 μM, baseline 2.30±0.33, p<0.05, n=8): 2.23±0.34
number of groups of activation patterns ([2]; 1 μM, baseline 5.4±1.0, p<0.05, n=6): 6.4±1.1
percentage of tachy-rhythms ([2]; 1 μM, baseline 18.3±12.6, p<0.05, n=6): 55.5±34.8%
percentage of dominant patterns (based on post-treatment data, FIG. 3E), first pattern ([2]; 1 μM, baseline 19.1±12.2, p<0.05, n=6): 39.6±15.6%
percentage of normal rhythms ([2]; 1 μM, baseline 41.4±9.7, p<0.01, n=6): 14.5±18.1%
propagation direction and speed in video (FIGS. 12A-12B) ([2]; 10 μM): relatively constant
representative spectrogram, effect ([2]; 10 μM): extra peaks appeared to the right of the original DF
wave fronts counted in representative spatio-temporal map (1 min) ([2]; 10 μM, 32 before treatment): 32
average SampEn (smaller scale 1-5) ([2]; 10 μM, baseline 0.57±0.06, p<0.05, n=6): 0.60±0.04
DFA fluctuation function (smaller scale 3-25) ([2]; 10 μM, baseline 2.24±0.23, p<0.05, n=6): 2.11±0.27
number of groups of activation patterns ([2]; 10 μM, baseline 6±0.7, p<0.05, n=9): 6.8±1.1
percentage of normal rhythms ([2]; 10 μM, baseline 42.4±6.9, p<0.05, n=9): 13.1±17.4%
DFA fluctuation function (larger scale 26-46) ([2]; 100 μM, baseline 1.63±0.19, p<0.05, n=10): 1.46±0.21
DFA fluctuation function (smaller scale 3-25) ([2]; 100 μM, baseline 2.31±0.12): 2.19±0.13
percentage of dominant patterns (based on post-treatment data, FIG. 3E), third pattern ([2]; 100 μM, baseline 20.3±10.8, p<0.0001, n=5): 7.5±5.8%
percentage of dominant baseline activation patterns, first pattern ([2]; 100 μM, baseline 34.4±3.7, p<0.01, n=4): 11.4±12.9%
percentage of brady-rhythms ([2]; 100 μM, baseline 34.7±9.1, p<0.05, n=6): 53.9±26.8%
percentage of normal rhythms ([2]; 100 μM, baseline 53.1±8.1, p<0.05, n=6): 33.4±23.3%
amplitude of slow waves ([2]; 100 μM, baseline 267.3±80.9, p<0.01, n=6): 199.7±48.8 μV
slope of waveforms ([2]; 100 μM, baseline 439.3±124.3, p<0.001, n=6): 299.0±76.5 μV s^−1
dominant frequency (DF), change vs baseline ([2]; 0.1-100 μM, p>0.05, n=6-9): No significant differences
dominant power (DP), change vs baseline ([2]; 0.1-100 μM, p>0.05, n=6-9): No significant differences
propagation velocities, effect ([2]; 0.1-100 μM, p>0.05, n=6-9): did not affect
waveform period, change vs baseline ([2]; 0.1-100 μM, p>0.05, n=6-9): No significant differences
average SampEn (smaller scale 1-5) ([2]; 1 M, baseline 0.57±0.06, p<0.01, n=8): 0.59±0.05
DFA fluctuation function (larger scale 26-46) ([2]; 1 M, baseline 1.74±0.26, p<0.01, n=8): 1.61±0.29
DFA fluctuation function (larger scale 26-46) ([2]; 10 M, baseline 1.73±0.16, p<0.05, n=6): 1.53±0.19
